According to a melting point compilation (Tetko et al.; mined from patent text by program, amines drawn as free bases though some values may be those of a salt):

SMILES	melting point [°C]
CN1C(=O)N(c2ccc(Cl)cc2)S(=O)(=O)c2ccc(OCC3CCCCC3)cc21	127 to 129
CCCNc1ncnc2c1ncn2CCCN1CCC(COc2ccccc2)CC1	62 to 63
CCCN(CCC)C(=O)C(CCC(=O)NC)NC(=O)C=Cc1ccco1 (centres undefined)	112 to 113
O=C1CCCc2nc3cc(Cl)ccc3c(NCc3ccccc3)c21	141 to 143
CN(C)C1(c2ccc(F)cc2)CCC(N2CCC(c3c[nH]c4ccccc34)C2)CC1 (centres undefined)	248 to 250
CNc1ccc2c(c1)N1CCCN=C1S2	184
N#CCCCOc1cccc(OCc2ccc3ccccc3n2)c1	84 to 85
c1ccc(Cc2cc3ccncc3[nH]2)cc1	142 to 146
COc1ccc(-c2nc(C(=O)Nc3nccs3)c(-c3ccc(C)cc3)[nH]2)c2ccccc12	> 250
CCOC1=CC(=O)N([C@@H]2c3cc(C#N)ccc3OC(C)(C)[C@H]2O)C1	210
CC1(C)NC(=O)N(CC(CS(=O)(=O)c2ccc(-c3ccc(Cl)cc3)cc2)C(=O)O)C1=O (centres undefined)	242 to 245
O=c1c2ccccc2[nH]c2c(OCCCCBr)cccc12	180 to 181
S=c1[nH]nnn1CCN1CCOCC1	226 to 228
Cc1nsc(OCC(Cl)(Cl)Cl)c1[N+](=O)[O-]	60 to 61
O=C(O)C1Cc2c([nH]c3ccccc23)CN1C(=S)SCc1ccc([N+](=O)[O-])cc1 (centres undefined)	194 to 195
COc1cccc2c(=O)c(C(N)=O)c(N)oc12	302
COc1ccccc1SCCCCCC(=O)O	81 to 82
COc1ccccc1Cc1nc2n(c1Cc1ccccc1OC)CCS2	212 to 213
CCC(=O)C(C)Oc1cc(C(=O)OC)ccc1OC (centres undefined)	63 to 65
Cc1nc(-n2ccc(OCCC3CC3)cc2=O)sc1C(=O)NCc1cccnc1	170 to 172
CC(C)(C)NC(=O)[C@@H]1CSCN1C[C@@H](O)[C@H](Cc1ccccc1)NC(=O)OCc1ccccc1	62 to 65
COc1ccc(CC(C)=O)cc1S(N)(=O)=O	194 to 196
CCOC(=O)N=C(NCCCc1c[nH]cn1)NCCC(c1ccccc1)c1ccccc1	125 to 126
C=CCc1cc2c(c(CC=C)c1O)CCC(=O)N2	118 to 119
COc1ccc(C)cc1NC(=O)Nc1ccc(N2CCN(C(=O)Nc3ccc(OCCO)cc3Cl)CC2)c(F)c1	118 to 120

SMILES	melting point [°C]
CCOC(=O)c1c(N2CCN(C(=O)c3cccs3)CC2)c2cscc2[nH]c1=O	282
CC1CCC2(C(=O)O)CCC3(C)C(=CCC4C5(C)CC(O)C(O)C(C)(C)C5CCC43C)C2C1C (centres undefined)	242 to 244
COC(=O)c1ccc2c(C(C(=O)O)c3ccc4c(c3)OCO4)cn(C)c2c1 (centres undefined)	194 to 198
COc1ccc(Cl)n2nc(SCc3ccccc3)nc12	99 to 100
O=C(NC1CN2CCC1CC2)c1cccc2c1CCC2 (racemic)	158
CN(C)c1nc2n(n1)Cc1ccccc1-2	164 to 166
COc1ccc(C(=O)Nc2c(Cl)cncc2Cl)c2c1oc1ccc(NC(C)=O)cc12	252
COc1ccc(-c2cc(=O)c3c(O)cc(OCC4=COC(C)(C)O4)cc3o2)cc1OCC1=COC(C)(C)O1	155 to 156
O=C(O)[C@@H]1CCCN1C(=S)CCc1ccccc1	86 to 88
Nc1ncnc2c1ncn2Cc1nc2c(Cl)cccc2c(=O)n1-c1ccccc1Cl	273 to 274
CCCCCCc1cc2c(s1)-n1c(C)nnc1CN=C2c1ccc(C)c(C)c1	98 to 100
CCC(CC)n1ncn(-c2ccc(N3CCNCC3)cc2)c1=O	135 to 137
COc1cc2[nH]c(S)nc2cc1C	> 310
CNC(=O)c1ccccc1Nc1nc(Nc2ccc3c(c2)CNC(=O)CCN3)ncc1Cl	267 to 268
COC(=O)c1ccc(Br)cc1CSC	79.3
Cc1cccc(-c2ccc(O)cc2C=O)c1	148 to 150
NCc1ccc(Nc2ncnc3[nH]cc(C(=O)c4ccccc4)c23)cc1	255 to 257
Cc1cnc2[nH]cc(/C=C3\N=C(N(C)CC(C)C)NC3=O)c2c1	287 to 289
CCC1c2ccc(C=O)n2-c2ccc(F)cc2N1S(=O)(=O)c1ccc(O)c(C)c1 (centres undefined)	192 to 194
Cc1cc(C2=NN=C(C(=O)O)Cc3cc4c(cc32)OCO4)ccc1[N+](=O)[O-]	185 to 186
S=C1CN=C(c2ccccc2)c2ccsc2N1	208 to 210
O=c1cc(-c2ccccc2)oc2cccc(OCCO)c12	124
CCOc1ccc(C2=NN(c3ccc(C(=O)N4CCN(c5nc(-c6ccccc6)ns5)CC4)cc3)C(=O)[C@@H]3CC=CC[C@H]23)cc1OCC	168 to 169
N#CN1c2ccccc2C=Cc2ccccc21	108 to 109
O=Cc1ccc(-c2cnn(-c3ccc(OC(F)(F)F)cc3)c2)cc1	107 to 109

SMILES	melting point [°C]
CNS(=O)(=O)c1ccc(-c2c(Cl)nc(C(F)(F)F)nc2-c2ccc(S(C)(=O)=O)cc2)cc1	226 to 230
O=c1[nH]c(=O)n(Cc2cccc(OCc3csc(-c4ccccc4)n3)c2)o1	139 to 140
O=C1NC(=O)C(c2ccc(OCCC3Oc4ccccc4N(Cc4cccc(Cl)c4)C3=O)cc2)S1 (centres undefined)	70 to 72
NS(=O)(=O)c1ccccc1-c1cnoc1	165 to 167
COc1cc2c(Nc3ccc(Sc4ccccn4)cc3)c(C#N)cnc2cc1N1CCC(N2CCCC2)CC1	182 to 184
CC(C)OC(=O)Nc1ccc(O)c(Cl)c1	89 to 90
O=c1oc(-c2ccc(C#Cc3ccccc3)cc2)cc(O)c1SCCc1ccccc1	181 to 182
COc1cc(C)nc2nc(S(=O)(=O)Nc3c(Cl)cccc3Cl)nn12	214 to 215
O=c1[nH]c2ccc(Cl)cc2c(-c2ccccc2F)c1CO	282 to 286
CNc1ncnc2c1ncn2/C=C/c1cc(NC(=O)c2cccc(C(F)(F)F)c2)ccc1C	201
CCCc1c(OCc2ccccc2C(=O)OC)ccc(C(C)=O)c1O	90 to 93
CC(C)(C)C(=O)Oc1cccc2c1C(=O)c1c(OC(=O)C(C)(C)C)cccc1C2C(=O)c1ccccc1	191
O=C(O)C(=O)CC(=O)c1cccn1Cc1cccc(Br)c1	164 to 166
C=CC(=O)Oc1c(C(C)c2cc(C(C)(C)C)cc(C(C)(C)C)c2O)cc(C(C)(C)C)cc1C(C)(C)C (centres undefined)	190 to 192
CN1CCC(Nc2nc3ncnc(O)c3n2Cc2ccc(F)cc2)CC1	256
CCOC(=O)COc1ccc(CN2C(=O)C3(COc4cc5c(cc43)OCCO5)c3ccccc32)cc1 (centres undefined)	59 to 61
CC(=O)Nc1ccc(NC(=O)c2ccc3c(c2)NC(=O)C3(C)C)cc1	294 to 295
Cn1c(CC(=O)O)c(C(=O)O)c(Br)c1C(=O)c1ccc(Cl)cc1	261 to 263
CCC(CC)N1CCN(C(=O)Oc2ccc(OC)cc2)CC1	52 to 54
Brc1ccc(C#Cc2c3ccccc3c(C#Cc3ccc(Br)cc3)c3ccccc23)cc1	305
O=C(O)c1cccc(-c2ccc3c(n2)C(Oc2ccc(Cl)cc2Cl)CC3)c1 (centres undefined)	198 to 204
COC(=O)N[C@H](C(=O)N[C@@H](Cc1ccccc1)[C@H](O)CN1C[C@H]2CCCC[C@H]2C[C@H]1C(=O)NC(C)(C)C)C(C)(C)S(C)(=O)=O	190 to 194
CSC(=S)NN=Cc1nc(-c2ccccc2)[nH]c1C	180 to 185
CC(=O)c1ccc(OCCCOc2cc(N)c(C)cc2Cl)c(CCC(F)(F)F)c1O	111 to 113
Cc1ccc(F)c(NS(=O)(=O)c2n[nH]c(NC=O)n2)c1F	270 to 273

SMILES	melting point [°C]
O=C1CCC([N+](=O)[O-])C(c2cccc(Cl)c2)N1 (centres undefined)	131 to 133
CCc1nn2c(-c3cccnc3)ccnc2c1Cl	132 to 133
Cn1cnnc1C(N)(c1ccc(I)cc1)c1ccc2c(c1)c(-c1cccc(Cl)c1)nc1nnnn12 (centres undefined)	238
O=C(O)c1cncc(-c2cnc3c(c2)N(Cc2cc(F)ccc2F)CCN3)c1	255 to 260
CCOC(=O)C1=C(C)Nc2nc(N3CCOCC3)nc(N3CCOCC3)c2C1c1cccs1 (centres undefined)	205
Cc1cnc2cc(NS(=O)(=O)c3cccc(Cl)c3C)ccc2n1	159
COc1ccc(COc2cnc3c(S)cccn3c2=O)cc1	> 230
COCCOC(=O)C1=C(O)c2ccccc2S(=O)(=O)N1C	106 to 108
O=C(Nc1cccc2c(=O)cc(C(=O)O)oc12)c1ccc2c(c1)CC(CCCc1ccccc1)O2 (centres undefined)	184 to 185
O=C(O)COc1cc2c(-c3ccccc3)csc2c(Cl)c1Cl	152 to 154
COC(=O)c1ccc(-c2nc(-c3ccc(OC(F)F)cc3)cs2)cc1	146 to 148
CN1C(=O)CC2(Cc3cc4ccccc4n3C2)C1=O (centres undefined)	154 to 156
CCOC(=O)c1ccc(Oc2ccccc2C(=O)O)cc1	152 to 153
O=C(c1ccc(F)cc1)C1CCN(CCCO)CC1	107 to 109
CCOC(=O)c1cc2ccccc2nc1C	70 to 72
Cc1nn(-c2cc(OC(C)C(=O)NS(C)(=O)=O)c(Cl)cc2Cl)c(=O)n1C(F)F (centres undefined)	185 to 188
CN1CC(c2cccc(Cl)c2)=C(c2ccc(S(C)(=O)=O)cc2)C1=O	170 to 172
COc1ccc(-c2c(CC(=O)O)c(-c3ccccc3)nn2-c2ccccc2)cc1	160 to 163
Nc1ccc2nc3c(nc2c1)CCCC3	150 to 152
COc1ccc(CNc2ccccc2[N+](=O)[O-])cc1	75 to 78
CC(C)CCCOc1c(-c2ccc(S(C)(=O)=O)cc2)cnn(-c2cccc(Cl)c2)c1=O	139 to 140
CC(C)n1c(C=O)c(-c2ccc(F)cc2)c(-c2ccc(F)cc2)c1C(=O)NCc1ccc(S(C)(=O)=O)cc1	203 to 204
COCCCNS(=O)(=O)Cc1cccc(Nc2cc(-c3ccccc3OC)ncn2)c1	149 to 151
O=[N+]([O-])c1ccc2c(c1)OC(CO)(CO)O2	111 to 113
